Tests used:
HepG2 cells [1] = assay: Electron-microscopic examination of PLsis induction potential (myelin-like structure)
Excerpt: Using 30 kinds of the following commercially available drugs as test compounds, the level of PLsis induction potential was examined with the emergence of an intracellular myelin-like structure or a structure having a high electron density, which is an early image thereof, as an index by electronmicroscopic observation.
HepG2 cells (purchased from ATCC) were exposed to the test compound by a conventional method. HepG2 cells used were of the cell growth phase. The attached HepG2 cells were washed twice with. Dulbecco's phosphate buffered saline (calcium and magnesium salt free; PBS(−))(Dainippon Pharmaceutical Co., Ltd.) containing 0.05 w/v % EDTA, detached with a cell dissociation solution of 0.25 vol % trypsin-1 mmol/L EDTA (Gibco BRL) diluted 2-fold with PBS(−), centrifuged to remove the supernatant, and adjusted to a concentration of 2×10^5 cells/250 μL with a culture medium [Dulbecco's modified Eagle medium (DMEM)(Gibco BRL) supplemented with 50 U/mL penicillin (Gibco BRL)-[…] streptomycin (Gibco BRL) and 5 vol % FBS (Bio whittaker)]. DMSO alone or a culture medium containing the above-mentioned test compound in DMSO solution was dispensed to a well by 250 μL, the above-mentioned cell suspension (250 μL) was added, and cultured in a CO2 incubator (7100; Napco) under an atmosphere of 5% CO2—95% air at 37° C.
After culture for 72 hr, the culture medium was removed, and the cells were fixed with 1 w/v % glutaraldehyde solution. After fixing with 2 w/v % osmic acid for 2 hr by a conventional method and dehydrating with an alcohol series, the cells were embedded in a resin (Quetol 812). Ultrathin slices were prepared and, after electron staining, observed with an electron microscope (H-300; Hitachi) and photographed in 3 or more pictures per each sample (magnification ×5000). The processing after post-fixation was performed by Applied Medical Research.

HepG2 cells [2] = assay: Highest concentration at which cells were viable after 72 hr exposure; format: cell-based, human
asah1 = assay: Real-time quantitative PCR of PLsis marker gene expression; format: cell-based, human; settings: HepG2 cells, 24 hr exposure, relative value, control group = 1.0, GAPDH internal standard, n=3
Method: (§1) Using RNeasy Mini Kit (QIAGEN), total RNA was purified from the cells, and cDNA was synthesized in a 100 μL system using TaqMan Reverse Transcription Reagents (PE Applied Biosystems).
(§2) As the primer for glyceraldehyde-3-phosphoric acid dehydrogenase (GAPDH) and VIC labeled probe, those attached to TaqMan GAPDH Control Reagents (PE Applied Biosystems) were used.
(§3) Using 100 μL of the reaction mixture containing 5 μL of cDNA (1×TaqMan Universal PCR Master Mix (PE Applied Biosystems), 200 nM forward primer, 200 nM reverse primer and 200 nM TaqMan probe), 40 cycles of (1 cycle=95° C., 15 sec; 60° C., 1 min) PCR were performed. PCR and fluorescence detection were performed using ABI PRISM Sequence Detector 7000 (PE Applied Biosystems). As the internal standard, GAPDH was used to amend the measurement values. For the determination of significant difference, t-test was used (n=3).
(§4) For each test compound, the expression variation rate of 12 genes each relative to the control group was determined.

depp = assay: as above; format: cell-based, human; settings: HepG2 cells, 24 hr exposure, relative value, control group = 1.0, GAPDH internal standard, n=3
Method: as §1, §2, §3, §4

fabp1 = assay: as above; format: cell-based, human; settings: HepG2 cells, 24 hr exposure, relative value, control group = 1.0, GAPDH internal standard, n=3
Method: as §1, §2, §3, §4

flj22362 = assay: as above; format: cell-based, human; settings: HepG2 cells, 24 hr exposure, relative value, control group = 1.0, GAPDH internal standard, n=3
Method: as §1, §2, §3, §4

hpn = assay: as above; format: cell-based, human; settings: HepG2 cells, 24 hr exposure, relative value, control group = 1.0, GAPDH internal standard, n=3
Method: as §1, §2, §3, §4

kiaa1001 = assay: as above; format: cell-based, human; settings: HepG2 cells, 24 hr exposure, relative value, control group = 1.0, GAPDH internal standard, n=3
Method: as §1, §2, §3, §4

lss = assay: as above; format: cell-based, human; settings: HepG2 cells, 24 hr exposure, relative value, control group = 1.0, GAPDH internal standard, n=3
Method: as §1, §2, §3, §4

mgc4171 = assay: as above; format: cell-based, human; settings: HepG2 cells, 24 hr exposure, relative value, control group = 1.0, GAPDH internal standard, n=3
Method: as §1, §2, §3, §4

nr0b2 = assay: as above; format: cell-based, human; settings: HepG2 cells, 24 hr exposure, relative value, control group = 1.0, GAPDH internal standard, n=3
Method: as §1, §2, §3, §4

serpina3 = assay: as above; format: cell-based, human; settings: HepG2 cells, 24 hr exposure, relative value, control group = 1.0, GAPDH internal standard, n=3
Method: as §1, §2, §3, §4

slc2a3 = assay: as above; format: cell-based, human; settings: HepG2 cells, 24 hr exposure, relative value, control group = 1.0, GAPDH internal standard, n=3
Method: as §1, §2, §3, §4

tagln = assay: as above; format: cell-based, human; settings: HepG2 cells, 24 hr exposure, relative value, control group = 1.0, GAPDH internal standard, n=3
Method: as §1, §2, §3, §4

| SMILES | frequency of appearance of myelin-like structure (HepG2 cells [1]) | expression variation rate asah1 (asah1) | expression variation rate depp (depp) | expression variation rate fabp1 (fabp1) | expression variation rate flj22362 (flj22362) | expression variation rate hpn (hpn) | expression variation rate kiaa1001 (kiaa1001) | expression variation rate lss (lss) | expression variation rate mgc4171 (mgc4171) | expression variation rate nr0b2 (nr0b2) | expression variation rate serpina3 (serpina3) | expression variation rate slc2a3 (slc2a3) | expression variation rate tagln (tagln) | addition concentration (highest concentration at which cells survived after 72 hr of culture) (HepG2 cells [2]) [µmol/L] |
| --- | --- | --- | --- | --- | --- | --- | --- | --- | --- | --- | --- | --- | --- | --- |
| CCN(CC)CCNC(=O)c1ccc(N)cc1 [procainamide] | − | 0.86 | 0.98 | 1.00 | 0.73 | 1.08 | 1.78 | 0.90 | 1.08 | 0.74 | 0.96 | 0.88 | 0.85 | 25 |
| CN[C@H]1CC[C@@H](c2ccc(Cl)c(Cl)c2)c2ccccc21 [sertraline] | ++ | 3.08 | 4.44 | 4.14 | 3.49 | 3.07 | 2.38 | 3.91 | 1.94 | 1.79 | 2.69 | 0.14 | 0.37 | 8.3 |
| CC(C)NCC(O)c1ccc(NS(C)(=O)=O)cc1 (stereo not drawn) [sotalol] | − | 1.39 | 0.80 | 0.98 | 0.85 | 0.79 | 0.84 | 0.88 | 0.72 | 0.63 | 0.78 | 1.53 | 0.80 | 25 |
| Cc1cc(NS(=O)(=O)c2ccc(N)cc2)no1 [sulfamethoxazole] | − | 1.26 | 0.70 | 0.85 | 0.87 | 0.89 | 0.84 | 0.82 | 0.78 | 0.82 | 0.98 | 1.11 | 0.99 | 25 |

Continued, in another order:

| frequency of appearance of myelin-like structure (HepG2 cells [1]) | expression variation rate asah1 (asah1) | expression variation rate depp (depp) | expression variation rate fabp1 (fabp1) | expression variation rate flj22362 (flj22362) | expression variation rate hpn (hpn) | expression variation rate kiaa1001 (kiaa1001) | expression variation rate lss (lss) | expression variation rate mgc4171 (mgc4171) | expression variation rate nr0b2 (nr0b2) | expression variation rate serpina3 (serpina3) | expression variation rate slc2a3 (slc2a3) | expression variation rate tagln (tagln) | SMILES | addition concentration (highest concentration at which cells survived after 72 hr of culture) (HepG2 cells [2]) [µmol/L] |
| --- | --- | --- | --- | --- | --- | --- | --- | --- | --- | --- | --- | --- | --- | --- |
| − | 1.35 | 1.05 | 1.01 | 1.26 | 1.16 | 1.34 | 1.23 | 0.99 | 0.63 | 0.95 | 0.99 | 1.06 | CNS(=O)(=O)Cc1ccc2[nH]cc(CCN(C)C)c2c1 [sumatriptan] | 25 |
| ++ | 4.50 | 2.02 | 1.90 | 1.53 | 2.19 | 1.85 | 3.01 | 1.60 | 2.56 | 2.12 | 0.24 | 0.27 | CC/C(=C(\c1ccccc1)c1ccc(OCCN(C)C)cc1)c1ccccc1 [tamoxifen] | 8.3 |

Source: patent US20070218460A1, “Method of Estimating Toxicity of Drug” (TAKEDA PHARMACEUTICAL COMPANY LIMITED, priority 2003, published 2007)
